The values below come from PMC10454375, “Cell-Impermeable Inhibitors Confirm That Intracellular Human Transglutaminase 2 Is Responsible for the Transglutaminase-Associated Cancer Phenotype” (International Journal of Molecular Sciences, 2023).

Structures are written as SMILES. Where two headings read alike, the source gives them in different places. Bounds are passed on as bounds.

Data set [1] has as its target T1, Recombinant human TG2 (Homo sapiens, UniProt P21980).
T1 construct: GST (with PSP protease site, plasmid pGST-PSP-rhTG2) (N, cleaved yes); made in house; host or cells: E. coli (BL21)
T1 sequence (P21980 1-687): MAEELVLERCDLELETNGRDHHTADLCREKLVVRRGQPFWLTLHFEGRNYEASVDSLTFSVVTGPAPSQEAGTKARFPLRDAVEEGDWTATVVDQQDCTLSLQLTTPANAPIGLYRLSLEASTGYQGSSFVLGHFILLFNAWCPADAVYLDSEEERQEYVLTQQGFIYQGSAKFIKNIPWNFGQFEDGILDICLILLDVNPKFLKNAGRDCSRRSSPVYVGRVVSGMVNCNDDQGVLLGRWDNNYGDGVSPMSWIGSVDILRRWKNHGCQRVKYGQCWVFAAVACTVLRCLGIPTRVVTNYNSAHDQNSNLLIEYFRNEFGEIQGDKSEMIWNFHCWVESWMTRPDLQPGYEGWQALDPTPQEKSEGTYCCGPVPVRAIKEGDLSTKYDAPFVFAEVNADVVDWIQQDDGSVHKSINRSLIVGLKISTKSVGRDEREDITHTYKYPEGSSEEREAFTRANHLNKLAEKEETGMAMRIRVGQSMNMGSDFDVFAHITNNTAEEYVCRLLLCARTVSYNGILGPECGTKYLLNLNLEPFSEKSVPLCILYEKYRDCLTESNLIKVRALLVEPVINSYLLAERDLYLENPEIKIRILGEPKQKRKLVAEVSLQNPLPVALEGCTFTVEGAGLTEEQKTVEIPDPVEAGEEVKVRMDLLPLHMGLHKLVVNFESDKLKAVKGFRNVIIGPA
The arrangement: method as in PMID 36846375. Particulars: previous lead compound, Figure 1; cited from earlier work.

In data set [2] the target is T1, Recombinant human TG2. In words: rhTG2 inhibition assay, continuous chromogenic substrate AL5, Kitz and Wilson conditions. The class given is biochemical. Particulars: for kinact / Ki: * compounds fitted to double reciprocal model, 25 °C, pH 6.9, 100 µM AL5; for kinact/KI: * double reciprocal model, ** lowest concentrations of saturation plot fitted to a linear model; for Ki: irreversible inhibition. The text has this:
Relative to the original scaffold, we expected the potency of these novel chemical biology tools to decrease slightly, due to the additional bulk incorporated on the glutamate sidechain. Although we expected the sidechain moiety to be directed into bulk solvent, we were concerned that its mass and charge would disfavor the binding interaction. Therefore, we kinetically characterized these probes as rigorously as possible, in order to determine their relative affinity and reactivity. For most inhibitors we have made, including the parent inhibitor AA9 (Figure 1), we have been able to measure kinetic parameters under Kitz and Wilson conditions. This experimental approach is based on the use of a continuous activity assay and the measurement of first-order rate constants for the time-dependent inactivation of enzyme (see Figure 2A and Figures S1–S5 in Supplementary Materials). The dependence of these observed rate constants (kobs) on the inhibitor concentration divided by alpha ([I]/α) can then be fitted to a hyperbolic saturation model where the upper plateau represents the rate constant of inactivation (kinact), and the concentration providing half the rate constant of inactivation represents KI (Figure 2B). […] To compensate for this, the overall efficiency of the inhibitor (kinact/KI) can be derived from the slope of the linear region of the saturation plot (Figure 2C). To gauge the individual parameters, a double reciprocal fitting was also employed where KI can be calculated from the x-axis intercept and kinact can be calculated from the y-axis intercept (Figure 2D).
Recombinant human TG2 was expressed and purified using previously published protocols. The inhibition was monitored using a continuous chromogenic substrate AL5 [38] under Kitz and Wilson conditions. In brief, 125 µL of assay buffer composed of 111.11 mM MOPS, 15.56 CaCl2 pH 6.9 was added to a 1.5 mL Eppendorf tube to achieve final assay concentrations of 50 mM MOPS and […] CaCl2. To the tube was then added the respective concentration of inhibitor from an aqueous working stock (<5% DMSO final conditions). Various volumes of water were then added to ensure the final volumes were equal. The AL5 substrate was added to the Eppendorf tube as a 5 µL 5.56 mM solution in DMSO to obtain a final assay concentration of 100 µM. A 96-well polystyrene microplate then had 180 µL of the assay mixture added to it. The enzymatic reaction was finally initiated by addition of 20 µL 5 mU prediluted TG2 in assay buffer using a multichannel pipette. The reaction was monitored at 405 nm using a BioTek Synergy 4 plate reader for 20 min at 25 °C. A positive control with no inhibitor and a blank with no enzyme nor inhibitor were also included. The blank subtracted kinetic curves were then analyzed. The observed first-order rate constants of inactivation were gathered through a one-phase association model using the GraphPad software package. The rate constants were then fit to various models to elucidate the inhibition parameters. If saturation was achieved, they were fit to a saturation model versus the inhibitor concentration divided by alpha (where α=1+Substrate/Km ). A linear regression of the linear region of this saturation fitting was calculated to obtain a ratio of kinact/KI. A further double reciprocal model was used if saturation could not be observed due to the limitations in sensitivity of the assay or if solubility issues were present.

Data set [3] can be described thus: Solubility in aqueous solutions. Particulars: read-out: concentration above which decreased solubility in aqueous solutions was displayed. The class given is physicochemical.
Data set [4] deals with T2, GST-TG2 fusion protein (Homo sapiens, UniProt P21980).
T2 construct: made in house; host or cells: BL21 E. coli (crude lysate)
In words: Pull-down of rhTG2 from E. coli lysate (CuAAC with desthiobiotin-PEG3-azide, streptavidin resin). In kind it is binding. The note with it: E. coli lysate overexpressing GST-rhTG2; elution with 4 mM biotin. The protocol:
As a proof of concept, previously described BL21 E. coli cells were transformed with a plasmid (pGST-PSP-rhTG2) to induce overexpression of recombinant human TG2 (rhTG2) as a GST fusion protein [47]. The bacterial cells were then lysed and exposed to the propargylated inhibitor 31 to allow for labelling. A subsequent CuAAC reaction was then performed in the same cell lysate to incorporate the desthiobitoin-PEG3-azide into labelled TG2. The lysate was then passed over streptavidin resin to isolate all proteins that had reacted with inhibitor 31. These proteins were then eluted from the resin using a solution of 4 mM biotin, and the eluant was analyzed by SDS-PAGE. […] This validates not only the TG2-selectivity of probe 31, but also the efficiency of the click reaction of the GST-TG2-31 adduct, allowing for the isolation of TG2 from cell lysate in a very mild manner.
A total of 400 µL of the aforementioned E. coli cell lysate combined with 133 µL of a solution of 75 µM 31 was added to a 1.5 mL Eppendorf tube. The labelling was allowed to occur for 25 min. Totals of 25 µL of a solution of 500 µM azide-PEG3-desthiobiotin 32 and 500 µM cupric sulfate in 20 mM HEPES at pH 8.0 were added to the tube. To initiate the click reaction, 100 µL of 150 µM sodium ascorbate solution in mQ H2O was added and gently rocked for 2.5 h at room temperature. […]

T2 sequence (P21980 with tags, fused parts or gaps): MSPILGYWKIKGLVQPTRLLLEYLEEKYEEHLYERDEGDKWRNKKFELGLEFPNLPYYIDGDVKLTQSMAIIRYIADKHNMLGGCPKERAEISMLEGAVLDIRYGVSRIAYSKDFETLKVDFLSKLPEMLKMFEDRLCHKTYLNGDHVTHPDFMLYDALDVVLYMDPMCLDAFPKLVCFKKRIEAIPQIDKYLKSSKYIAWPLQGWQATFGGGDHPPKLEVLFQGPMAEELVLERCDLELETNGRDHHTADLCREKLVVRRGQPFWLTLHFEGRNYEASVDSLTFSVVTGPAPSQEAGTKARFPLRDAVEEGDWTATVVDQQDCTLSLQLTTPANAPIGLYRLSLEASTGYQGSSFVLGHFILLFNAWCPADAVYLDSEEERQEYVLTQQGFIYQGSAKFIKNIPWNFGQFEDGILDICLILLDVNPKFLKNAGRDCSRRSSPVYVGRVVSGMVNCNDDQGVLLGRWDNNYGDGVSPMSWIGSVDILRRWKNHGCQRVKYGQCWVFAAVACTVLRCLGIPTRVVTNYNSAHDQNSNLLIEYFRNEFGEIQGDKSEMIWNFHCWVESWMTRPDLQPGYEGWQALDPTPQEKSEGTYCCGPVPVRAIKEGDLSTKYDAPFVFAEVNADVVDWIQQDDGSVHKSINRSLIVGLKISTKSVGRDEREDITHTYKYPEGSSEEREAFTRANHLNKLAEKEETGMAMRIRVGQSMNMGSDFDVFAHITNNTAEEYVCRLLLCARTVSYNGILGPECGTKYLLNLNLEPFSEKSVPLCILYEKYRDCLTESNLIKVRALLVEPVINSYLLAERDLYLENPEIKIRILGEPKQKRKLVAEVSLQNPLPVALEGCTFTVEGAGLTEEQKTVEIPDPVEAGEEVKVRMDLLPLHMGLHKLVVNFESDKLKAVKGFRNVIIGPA

As usually defined, the kinact/KI is the maximal inactivation rate divided by the concentration that gives half of it. Take `C=CC(=O)NCCCC[C@H](NC(=O)OCc1ccccc1)C(=O)N1CCN(C(=O)c2cccc3ccccc23)CC1` [AA9]: the inactivation efficiency (kinact/KI) in data set [1] was 100000 M⁻¹ min⁻¹.

As a reminder, the kinact is the rate constant of inactivation at saturating inhibitor. As to `C=CC(=O)NCCCC[C@H](NC(=O)OCc1ccccc1)C(=O)N1CCN(C(=O)[C@H](CCC(=O)NCCCCCNC(=O)c2cc3ccc(N(CC)CC)cc3oc2=O)NC(=O)c2cccc3ccccc23)CC1` [Compound 22], in data set [2], the kinact is 0.004 s⁻¹, the inactivation efficiency (kinact/KI) was 3130 M⁻¹ s⁻¹ and the Ki turned out to be 1300 ± 1100 nM. The solubility in data set [3] is > 25 µM.

In the case of `C#CCNC(=O)CC[C@H](NC(=O)c1cccc2ccccc12)C(=O)N1CCN(C(=O)[C@H](CCCCNC(=O)C=C)NC(=O)OCc2ccccc2)CC1` [Compound 31], the “proteins isolated by pull-down (TG2 selectivity)” value in data set [4] is “the only protein efficiently isolated in this experiment corresponds to the GST-TG2 fusion protein”. Besides, in data set [2], the kinact is 0.00767 s⁻¹, the second-order inactivation constant (kinact/KI) is 8280 M⁻¹ s⁻¹ and the Ki was 900 ± 500 nM.
